# Measured values reported in patent publication US12303541B2, “Erodium crassifolium L'Her plant extracts and uses thereof” (priority 2015, dated 2025).
# System: IL-8
# Assay: IL-8 levels in TNF-α treated HaCaT cells (EE, fractions, pure compounds)
# Assay type: cell-based, human
# Details: for reduction of IL-8 levels by individual pure compounds: tested separately at the concentration present in comb-1, HaCaT
# Method: After incubation, cell excitation was performed with recombinant human tumor necrosis factor-α (TNF-α, PeproTech, 300-01A, USA). Cultures in each well were treated with a final concentration of 50 ng/mL of TNFα and 50 μL plant extract. Three different controls were included in all experiments: (a) non-treated cells, with neither TNF-α nor plant extracts, (b) cells treated with TNF-α alone, (c) cells treated with TNF-α and the solvent (7% ethanol). The supernatant was collected, and the level of IL-8 was measured 16 h post-treatment using the commercial Human CXCL8/IL-8 DuoSet ELISA kit (R&D Systems, DY208-05, USA) according to the manufacturer's protocol. IL-8 is a common biomarker for inflammatory skin diseases. 16 h of TNF-α exposure induce IL-8 levels. Dexamethasone (Sigma-Aldrich, D4902, USA) was used as a positive control.
Compound,reduction of IL-8 levels by individual pure compounds,"IL-8, % of TNF-α activated cells (100 μM, HaCaT) [%]","level of IL-8 (100 μM, TNF-α 50 ng/mL, 16 h, HaCaT) [pg/mL]",IL-8 levels (17.6 μg/mL),IL-8 reduction activity (all examined concentrations of pure standard)
catechin,inactive for reduction of IL-8 levels,,,,
"C[C@@H]1C[C@H]2[C@@H]3CCC4=CC(=O)C=C[C@]4(C)[C@@]3(F)[C@@H](O)C[C@]2(C)[C@@]1(O)C(=O)CO [dexamethasone, Dexamethasone]",,59.4,104.0 ± 3.0,,
O=C(O)c1cc(O)c(O)c(O)c1 [gallic acid],inactive for reduction of IL-8 levels,,,,
"Oc1cc(O)c2c(c1)O[C@H](c1cc(O)c(O)c(O)c1)[C@H](O)C2 [EGC, (−)-Epigallocatechin]",inactive for reduction of IL-8 levels,,,led to increased IL-8 levels,None of the examined concentrations of pure standard EGC showed any significant IL-8 reduction activity
